Measured values as given in patent US20240391936A1, “TETRAHYDROTHIENO PYRIDINE DERIVATIVES AS DDRS INHIBITORS” (CHIESI FARMACEUTICI S.P.A., priority 2021, published 2024).

How the values were obtained:
DDR2 [1] = target: T1, DDR2 (Homo sapiens, UniProt Q16832); test: DDR2 binding assay (LanthaScreen Europium Kinase Binding assay); design: purchased Life Technologies; settings: binding assay, 5 nM DDR2, 10 nM Kinase Tracer 178; Ki from IC50 by Cheng-Prusoff; read-out: Ki DDR2
T1 sequence (Q16832 22-855): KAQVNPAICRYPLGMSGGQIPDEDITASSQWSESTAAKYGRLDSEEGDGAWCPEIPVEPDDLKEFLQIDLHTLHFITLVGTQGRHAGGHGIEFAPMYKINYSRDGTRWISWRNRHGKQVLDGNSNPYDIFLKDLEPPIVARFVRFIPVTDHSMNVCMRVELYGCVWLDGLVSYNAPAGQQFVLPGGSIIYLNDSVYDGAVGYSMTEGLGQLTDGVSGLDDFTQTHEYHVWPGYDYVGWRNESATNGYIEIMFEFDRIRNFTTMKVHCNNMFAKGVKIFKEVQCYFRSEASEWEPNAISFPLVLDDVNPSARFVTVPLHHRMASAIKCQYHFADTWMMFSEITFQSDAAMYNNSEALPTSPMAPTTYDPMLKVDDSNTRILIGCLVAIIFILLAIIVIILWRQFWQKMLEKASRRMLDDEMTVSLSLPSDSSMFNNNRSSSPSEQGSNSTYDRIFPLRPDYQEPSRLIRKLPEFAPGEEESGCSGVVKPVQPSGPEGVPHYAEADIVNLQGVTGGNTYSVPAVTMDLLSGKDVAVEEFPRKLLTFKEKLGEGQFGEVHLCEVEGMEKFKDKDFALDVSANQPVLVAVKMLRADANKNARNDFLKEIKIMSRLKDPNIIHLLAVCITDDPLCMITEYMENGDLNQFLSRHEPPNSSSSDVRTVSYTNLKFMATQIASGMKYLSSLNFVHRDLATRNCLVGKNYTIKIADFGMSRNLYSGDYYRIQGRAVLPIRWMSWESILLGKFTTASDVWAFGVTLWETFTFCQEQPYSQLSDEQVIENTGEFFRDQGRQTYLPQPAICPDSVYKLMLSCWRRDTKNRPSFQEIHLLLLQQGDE
How it was run: (§1)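 Compounds incubated 1 h at room temperature with 5 nM kinase, Kinase Tracer 178 (20 nM for DDR1, 10 nM for DDR2) and 2 nM Eu-anti-GST antibody in pH 7.5 HEPES/MgCl2/EGTA/BRIJ35 buffer. TR-FRET 665/615 nm ratio read after 340 nm excitation; IC50 from 4-parameter fit, converted to Ki by Cheng-Prusoff.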

DDR1 [2] = target: T2, DDR1 (Homo sapiens, UniProt Q08345); test: DDR1 cell based assay (PathHunter U2OS DDR1 assay); design: host or cells: U2OS-DDR1 (PathHunter); settings: U2OS-DDR1 cells, bovine Type II Collagen 20 μg/ml
T2 sequence (Q08345 19-913): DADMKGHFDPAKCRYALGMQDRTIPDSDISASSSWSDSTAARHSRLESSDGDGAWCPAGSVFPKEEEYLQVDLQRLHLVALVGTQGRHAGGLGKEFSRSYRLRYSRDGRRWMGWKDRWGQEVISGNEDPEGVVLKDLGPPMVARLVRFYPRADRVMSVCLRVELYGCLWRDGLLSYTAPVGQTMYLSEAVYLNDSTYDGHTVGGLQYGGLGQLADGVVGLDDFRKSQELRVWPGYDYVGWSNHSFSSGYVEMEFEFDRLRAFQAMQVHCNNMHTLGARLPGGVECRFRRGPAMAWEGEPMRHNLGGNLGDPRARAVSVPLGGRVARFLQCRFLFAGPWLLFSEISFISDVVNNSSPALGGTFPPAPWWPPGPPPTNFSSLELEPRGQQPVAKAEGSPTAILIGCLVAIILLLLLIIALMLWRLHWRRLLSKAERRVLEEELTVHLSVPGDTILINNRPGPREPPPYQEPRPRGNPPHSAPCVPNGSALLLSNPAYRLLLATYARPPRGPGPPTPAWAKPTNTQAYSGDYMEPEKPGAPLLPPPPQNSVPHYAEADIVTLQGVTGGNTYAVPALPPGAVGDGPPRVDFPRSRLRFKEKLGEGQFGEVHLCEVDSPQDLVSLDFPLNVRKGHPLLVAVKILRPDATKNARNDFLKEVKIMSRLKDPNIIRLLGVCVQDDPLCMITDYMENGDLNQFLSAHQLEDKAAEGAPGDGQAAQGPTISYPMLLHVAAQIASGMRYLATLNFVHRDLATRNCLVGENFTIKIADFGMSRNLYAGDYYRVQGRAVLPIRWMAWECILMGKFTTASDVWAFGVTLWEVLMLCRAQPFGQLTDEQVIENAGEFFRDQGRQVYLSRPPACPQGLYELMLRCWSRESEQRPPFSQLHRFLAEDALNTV
How it was run: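 U2OS-DDR1 PathHunter cells preincubated 30 min with compound, then stimulated overnight at 37 °C with 20 μg/ml bovine type II collagen. Luminescent complementation signal read after 1 h detection at room temperature; normalized to vehicle (0%) and collagen-only (100%) controls, IC50 from variable-slope sigmoidal fit.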

DDR2 [3] = target: T1, DDR2; test: DDR2 cell based assay (phospho-ELISA in HEK293T-DDR2 recombinant cells); design: expressed in transfected cells; host or cells: HEK293T-DDR2 recombinant cells; settings: bovine Type II Collagen 50 μg/ml
Description: The inhibition of DDR2 phosphorylation by compounds was evaluated in HEK293T-DDR2 recombinant cells by phospho-ELISA assay. Briefly, HEK293T-DDR2 cells were seeded in poly-D-lysine-coated 24-well plates at a density of 250.000 cells/well and incubated for 1.5 hours at 37° C. and 5% CO2 in DMEM+10% FBS. After that, the medium was changed to serum-free DMEM and cells were incubated for 3 hours. Then. test compounds were added at different concentrations 30 minutes before stimulation with bovine Type II Collagen at 50 μg/ml for further 3 hours. For DDR2 phospho-ELISA assay (DuoSet IC Human Phospho-DDR2; R&D Systems), protein extracts were obtained by adding 60 μl/well of lysis buffer prepared according to the manufacturer's instructions. Protein concentration in the samples was determined by BCA assay and the levels of phospho-DDR2 were determined following R&D Systems indications. Raw data were normalized to maximal inhibition control (0% for normalization) and positive control (100% for normalization; cells treated with […] collagen II) and IC50 parameters were calculated in GraphPad Prism 8.0 software, using sigmoidal dose-response curve fitting with variable slope.

DDR1 [4] = target: T2, DDR1; test: DDR1 binding assay (LanthaScreen Europium Kinase Binding assay); design: purchased Carna Biosciences; settings: binding assay, 5 nM DDR1, 20 nM Kinase Tracer 178; Ki from IC50 by Cheng-Prusoff; read-out: Ki DDR1
How it was run: as §1

## CC(C)(C)c1cc(NC(=O)c2csc3c2CCN(Cc2cnc4[nH]ncc4c2)C3)no1 [Example 134, 6-((1H-pyrazolo[3,4-b]pyridin-5-yl)methyl)-N-(5-(tert-butyl)isoxazol-3-yl)-4,5,6,7-tetrahydrothieno[2,3-c]pyridine-3-carboxamide]
DDR2 [1]
  Ki: < 25 nM
DDR1 [2]
  IC50: < 25 nM
DDR2 [3]
  IC50: < 25 nM
DDR1 [4]
  Ki: < 25 nM

## C[C@@H]1c2scc(C(=O)Nc3cccc(C(F)(F)F)c3)c2CCN1C(=O)c1cnc2ccccn12 [Example 100, (R)-6-(imidazo[1,2-a]pyridine-3-carbonyl)-7-methyl-N-(3-(trifluoromethyl)phenyl)-4,5,6,7-tetrahydrothieno[2,3-c]pyridine-3-carboxamide]
DDR2 [1]
  Ki: < 25 nM
DDR1 [2]
  IC50: < 25 nM
DDR2 [3]
  IC50: < 25 nM
DDR1 [4]
  Ki: < 25 nM

## Cc1n[nH]c2ncc(CN3CCc4c(C(=O)Nc5cc(C(C)(C)C)nn5C)csc4C3)cc12 [Example 78, N-(3-(tert-butyl)-1-methyl-1H-pyrazol-5-yl)-6-((3-methyl-1H-pyrazolo[3,4-b]pyridin-5-yl)methyl)-4,5,6,7-tetrahydrothieno[2,3-c]pyridine-3-carboxamide]
DDR2 [1]
  Ki: < 25 nM
DDR1 [2]
  IC50: < 25 nM
DDR2 [3]
  IC50: < 25 nM
DDR1 [4]
  Ki: < 25 nM

## O=C(Nc1cccc(C(F)(F)F)c1)c1csc2c1CCN(C(=O)c1cnc3cnccn13)C2 [Example 90, 6-(imidazo[1,2-a]pyrazine-3-carbonyl)-N-(3-(trifluoromethyl)phenyl)-4,5,6,7-tetrahydrothieno[2,3-c]pyridine-3-carboxamide]
DDR2 [1]
  Ki: < 25 nM
DDR1 [2]
  IC50: < 25 nM
DDR2 [3]
  IC50: < 25 nM
DDR1 [4]
  Ki: < 25 nM

## O=C(Nc1cncc(C(F)(F)F)c1)c1csc2c1CCN(Cc1cnc3[nH]ncc3c1)C2 [Example 151, 6-(1H-pyrazolo[3,4-b]pyridin-5-ylmethyl)-N-[5-(trifluoromethyl)-3-pyridyl]-5,7-dihydro-4H-thieno[2,3-c]pyridine-3-carboxamide]
DDR2 [1]
  Ki: < 25 nM
DDR1 [2]
  IC50: < 25 nM
DDR2 [3]
  IC50: < 25 nM
DDR1 [4]
  Ki: < 25 nM

## O=C(Nc1cccc(C(F)(F)F)c1)c1csc2c1CCN(Cc1cnc3[nH]ccc3c1)C2 [Example 69, 6-((1H-pyrrolo[2,3-b]pyridin-5-yl)methyl)-N-(3-(trifluoromethyl)phenyl)-4,5,6,7-tetrahydrothieno[2,3-c]pyridine-3-carboxamide]
DDR2 [1]
  Ki: < 25 nM
DDR1 [2]
  IC50: < 25 nM
DDR2 [3]
  IC50: 25 to 50 nM
DDR1 [4]
  Ki: < 25 nM

## CN1CCN(Cc2cc(NC(=O)c3csc4c3CCN(C(=O)c3cnc5ccccn35)C4)cc(C(F)(F)F)c2)CC1 [Example 1, 6-(imidazo[1,2-a]pyridine-3-carbonyl)-N-(3-((4-methylpiperazin-1-yl)methyl)-5-(trifluoromethyl)phenyl)-4,5,6,7-tetrahydrothieno[2,3-c]pyridine-3-carboxamide]
DDR2 [1]
  Ki: < 25 nM
DDR1 [2]
  IC50: 25 to 50 nM
DDR2 [3]
  IC50: < 25 nM
DDR1 [4]
  Ki: < 25 nM

## O=C(Nc1cncc(C(F)(F)F)c1)c1csc2c1CCN(Cc1cnc3cnccn13)C2 [Example 153, 6-(imidazo[1,2-a]pyrazin-3-ylmethyl)-N-(5-(trifluoromethyl)pyridin-3-yl)-4,5,6,7-tetrahydrothieno[2,3-c]pyridine-3-carboxamide]
DDR2 [1]
  Ki: < 25 nM
DDR1 [2]
  IC50: < 25 nM
DDR2 [3]
  IC50: < 25 nM
DDR1 [4]
  Ki: < 25 nM

## O=C(Nc1cccc(C(F)(F)F)c1)c1csc2c1CCN(Cc1cnc3cnccn13)C2 [Example 84, 6-(imidazo[1,2-a]pyrazin-3-ylmethyl)-N-(3-(trifluoromethyl)phenyl)-4,5,6,7-tetrahydrothieno[2,3-c]pyridine-3-carboxamide]
DDR2 [1]
  Ki: < 25 nM
DDR1 [2]
  IC50: < 25 nM
DDR2 [3]
  IC50: < 25 nM
DDR1 [4]
  Ki: < 25 nM

## O=C(Nc1cccc(C(F)(F)F)c1)c1csc2c1CCN(Cc1ccnc3[nH]ccc13)C2 [Example 86, 6-((1H-pyrrolo[2,3-b]pyridin-4-yl)methyl)-N-(3-(trifluoromethyl)phenyl)-4,5,6,7-tetrahydrothieno[2,3-c]pyridine-3-carboxamide]
DDR2 [1]
  Ki: < 25 nM
DDR1 [2]
  IC50: < 25 nM
DDR2 [3]
  IC50: < 25 nM
DDR1 [4]
  Ki: < 25 nM

## O=C(Nc1cc(F)cc(C(F)(F)F)c1)c1csc2c1CCN(C(=O)c1cnc3ccccn13)C2 [Example 46, N-(3-fluoro-5-(trifluoromethyl)phenyl)-6-(imidazo[1,2-a]pyridine-3-carbonyl)-4,5,6,7-tetrahydrothieno[2,3-c]pyridine-3-carboxamide]
DDR2 [1]
  Ki: < 25 nM
DDR1 [2]
  IC50: < 25 nM
DDR2 [3]
  IC50: < 25 nM
DDR1 [4]
  Ki: < 25 nM

## O=C(Nc1cc(F)cc(OC(F)(F)F)c1)c1csc2c1CCN(Cc1cnc3[nH]ncc3c1)C2 [Example 174, 6-((1H-pyrazolo[3,4-b]pyridin-5-yl)methyl)-N-(3-fluoro-5-(trifluoromethoxy)phenyl)-4,5,6,7-tetrahydrothieno[2,3-c]pyridine-3-carboxamide]
DDR2 [1]
  Ki: < 25 nM
DDR1 [2]
  IC50: < 25 nM
DDR2 [3]
  IC50: 50 to 80 nM
DDR1 [4]
  Ki: < 25 nM

## O=C(Nc1cc(OCCN2CCOCC2)cc(C(F)(F)F)c1)c1csc2c1CCN(C(=O)c1cnc3ccccn13)C2 [Example 24, 6-(imidazo[1,2-a]pyridine-3-carbonyl)-N-(3-(2-morpholinoethoxy)-5-(trifluoromethyl)phenyl)-4,5,6,7-tetrahydrothieno[2,3-c]pyridine-3-carboxamide]
DDR2 [1]
  Ki: < 25 nM
DDR1 [2]
  IC50: < 25 nM
DDR2 [3]
  IC50: 25 to 50 nM
DDR1 [4]
  Ki: < 25 nM

## CC1Cc2c(C(=O)Nc3cccc(C(F)(F)F)c3)csc2CN1Cc1cnc2cnccn12 (single isomer, unassigned) [Example 104, 6-(imidazo[1,2-a]pyrazin-3-ylmethyl)-5-methyl-N-(3-(trifluoromethyl)phenyl)-4,5,6,7-tetrahydrothieno[2,3-c]pyridine-3-carboxamide]
DDR2 [1]
  Ki: < 25 nM
DDR1 [2]
  IC50: < 25 nM
DDR2 [3]
  IC50: 50 to 80 nM
DDR1 [4]
  Ki: < 25 nM

## COc1ccc(NC(=O)c2csc3c2CCN(C(=O)c2cnc4ccccn24)C3)cc1C(F)(F)F [Example 4, 6-(imidazo[1,2-a]pyridine-3-carbonyl)-N-(4-methoxy-3-(trifluoromethyl)phenyl)-4,5,6,7-tetrahydrothieno[2,3-c]pyridine-3-carboxamide]
DDR2 [1]
  Ki: < 25 nM
DDR1 [2]
  IC50: < 25 nM
DDR2 [3]
  IC50: < 25 nM
DDR1 [4]
  Ki: < 25 nM

## O=C(Nc1cccc(OC(F)(F)F)c1)c1csc2c1CCN(C(=O)c1cnc3ccccn13)C2 [Example 8, 6-(imidazo[1,2-a]pyridine-3-carbonyl)-N-(3-(trifluoromethoxy)phenyl)-4,5,6,7-tetrahydrothieno[2,3-c]pyridine-3-carboxamide]
DDR2 [1]
  Ki: < 25 nM
DDR1 [2]
  IC50: < 25 nM
DDR2 [3]
  IC50: < 25 nM
DDR1 [4]
  Ki: < 25 nM

## N#Cc1cc(NC(=O)c2csc3c2CCN(C(=O)c2cnn4ccncc24)C3)cc(C(F)(F)F)c1 [Example 184, N-(3-cyano-5-(trifluoromethyl)phenyl)-6-(pyrazolo[1,5-a]pyrazine-3-carbonyl)-4,5,6,7-tetrahydrothieno[2,3-c]pyridine-3-carboxamide]
DDR2 [1]
  Ki: < 25 nM
DDR1 [2]
  IC50: < 25 nM
DDR2 [3]
  IC50: 25 to 50 nM
DDR1 [4]
  Ki: < 25 nM
